Laboratory results reported in the NIST ThermoML archive (doi:10.1016/j.jct.2004.06.004).
Numbers after ± are expanded uncertainties.

Experiments:
[1] = Liquid
[2] = xn = mol fraction of the nth substance listed; details: 101.3 kPa, Liquid

NCCO [2-aminoethan-1-ol]
Details | mass density [kg/m3]
[1], 293.15 K, 101.33 kPa, Pycnometric method | 1012.1 ± 0.5

[1], 101.3 kPa
Details | viscosity [mPa·s]
298.15 K | 18.91 ± 0.3
303.15 K | 14.71 ± 0.26
308.15 K | 11.82 ± 0.22
313.15 K | 9.27 ± 0.18
318.15 K | 7.52 ± 0.15
323.15 K | 6.21 ± 0.13

NCCO [2-aminoethan-1-ol] + O
viscosity [mPa·s], [2]
Details | x1 = 0.03219 | x1 = 0.06969 | x1 = 0.1138 | x1 = 0.1666 | x1 = 0.2306 | x1 = 0.3102 | x1 = 0.4116 | x1 = 0.5452 | x1 = 0.7296 | x1 = 1
303.15 K | 1.081 ± 0.11 | 1.448 ± 0.15 | 2.041 ± 0.21 | 2.93 ± 0.3 | 4.28 ± 0.44 | 6.27 ± 0.64 | 9.25 ± 0.94 | 12.42 ± 1.3 | 14.56 ± 1.5 | 14.71 ± 1.5
308.15 K | 0.962 ± 0.099 | 1.282 ± 0.13 | 1.784 ± 0.18 | 2.513 ± 0.26 | 3.61 ± 0.37 | 5.23 ± 0.53 | 7.3 ± 0.74 | 9.75 ± 0.99 | 11.62 ± 1.2 | 11.82 ± 1.2
313.15 K | 0.865 ± 0.089 | 1.149 ± 0.12 | 1.536 ± 0.16 | 2.085 ± 0.21 | 2.932 ± 0.3 | 4.23 ± 0.43 | 5.88 ± 0.6 | 7.82 ± 0.8 | 9.26 ± 0.94 | 9.27 ± 0.94
318.15 K | 0.779 ± 0.08 | 1.01 ± 0.1 | 1.345 ± 0.14 | 1.786 ± 0.18 | 2.472 ± 0.25 | 3.51 ± 0.36 | 4.92 ± 0.5 | 6.53 ± 0.67 | 7.57 ± 0.77 | 7.52 ± 0.77
323.15 K | 0.703 ± 0.072 | 0.907 ± 0.093 | 1.173 ± 0.12 | 1.553 ± 0.16 | 2.125 ± 0.22 | 2.925 ± 0.3 | 3.95 ± 0.4 | 5.24 ± 0.54 | 6.06 ± 0.62 | 6.21 ± 0.63

CCOCCO [2-ethoxyethan-1-ol]
[1]
Details | mass density, 293.15 K [kg/m3] | viscosity, 293.15 K [mPa·s] | viscosity, 303.15 K [mPa·s] | viscosity, 308.15 K [mPa·s] | viscosity, 313.15 K [mPa·s] | viscosity, 318.15 K [mPa·s] | viscosity, 323.15 K [mPa·s]
101.3 kPa | – | 2.077 ± 0.045 | 1.612 ± 0.038 | 1.413 ± 0.034 | 1.24 ± 0.03 | 1.166 ± 0.028 | 1.026 ± 0.025
101.33 kPa | 929.7 ± 0.4 | – | – | – | – | – | –

CCOCCO [2-ethoxyethan-1-ol] + O
viscosity [mPa·s], [2]
Details | x1 = 0.0201 | x1 = 0.04419 | x1 = 0.07339 | x1 = 0.1098 | x1 = 0.1561 | x1 = 0.2172 | x1 = 0.3015 | x1 = 0.4252 | x1 = 0.6247 | x1 = 1
303.15 K | 1.046 ± 0.026 | 1.384 ± 0.033 | 1.709 ± 0.04 | 2.135 ± 0.049 | 2.516 ± 0.057 | 2.711 ± 0.061 | 2.858 ± 0.064 | 2.747 ± 0.062 | 2.266 ± 0.052 | 1.612 ± 0.038
308.15 K | 0.924 ± 0.023 | 1.177 ± 0.029 | 1.472 ± 0.035 | 1.769 ± 0.041 | 2.057 ± 0.047 | 2.248 ± 0.051 | 2.329 ± 0.053 | 2.2 ± 0.05 | 1.951 ± 0.045 | 1.413 ± 0.034
313.15 K | 0.814 ± 0.021 | 1.008 ± 0.025 | 1.238 ± 0.03 | 1.499 ± 0.035 | 1.711 ± 0.04 | 1.864 ± 0.043 | 1.947 ± 0.045 | 1.867 ± 0.043 | 1.676 ± 0.039 | 1.24 ± 0.03
318.15 K | 0.71 ± 0.018 | 0.898 ± 0.023 | 1.108 ± 0.027 | 1.322 ± 0.032 | 1.521 ± 0.036 | 1.663 ± 0.039 | 1.723 ± 0.04 | 1.632 ± 0.038 | 1.516 ± 0.036 | 1.166 ± 0.028
323.15 K | 0.651 ± 0.017 | 0.791 ± 0.02 | 0.958 ± 0.024 | 1.164 ± 0.028 | 1.339 ± 0.032 | 1.45 ± 0.034 | 1.55 ± 0.036 | 1.486 ± 0.035 | 1.361 ± 0.032 | 1.026 ± 0.025

COCCO [2-methoxyethan-1-ol]
[1]
Details | mass density, 293.15 K [kg/m3] | viscosity, 293.15 K [mPa·s] | viscosity, 303.15 K [mPa·s] | viscosity, 308.15 K [mPa·s] | viscosity, 313.15 K [mPa·s] | viscosity, 318.15 K [mPa·s] | viscosity, 323.15 K [mPa·s]
101.3 kPa | – | 1.991 ± 0.04 | 1.375 ± 0.033 | 1.126 ± 0.027 | 0.942 ± 0.023 | 0.832 ± 0.021 | 0.757 ± 0.019
101.33 kPa | 965.2 ± 0.5 | – | – | – | – | – | –

Details | viscosity [mPa·s]
[1], 293.15 K, 101.33 kPa, Capillary tube (Ostwald / Ubbelohde) method | 1.991 ± 0.015

COCCO [2-methoxyethan-1-ol] + O
viscosity [mPa·s], [2]
Details | x1 = 0.0247 | x1 = 0.05399 | x1 = 0.08909 | x1 = 0.1321 | x1 = 0.1858 | x1 = 0.2551 | x1 = 0.3475 | x1 = 0.4773 | x1 = 0.6726 | x1 = 1
303.15 K | 1.08 ± 0.026 | 1.353 ± 0.032 | 1.656 ± 0.039 | 1.979 ± 0.046 | 2.247 ± 0.051 | 2.396 ± 0.054 | 2.418 ± 0.055 | 2.296 ± 0.052 | 1.825 ± 0.042 | 1.375 ± 0.033
308.15 K | 0.953 ± 0.024 | 1.165 ± 0.028 | 1.459 ± 0.035 | 1.652 ± 0.039 | 1.888 ± 0.044 | 2.016 ± 0.046 | 2.051 ± 0.047 | 1.941 ± 0.045 | 1.528 ± 0.036 | 1.126 ± 0.027
313.15 K | 0.811 ± 0.021 | 0.985 ± 0.024 | 1.205 ± 0.029 | 1.367 ± 0.033 | 1.529 ± 0.036 | 1.668 ± 0.039 | 1.733 ± 0.04 | 1.6 ± 0.038 | 1.323 ± 0.032 | 0.942 ± 0.023
318.15 K | 0.735 ± 0.019 | 0.885 ± 0.022 | 1.031 ± 0.025 | 1.176 ± 0.028 | 1.368 ± 0.033 | 1.457 ± 0.034 | 1.53 ± 0.036 | 1.41 ± 0.033 | 1.133 ± 0.028 | 0.832 ± 0.021
323.15 K | 0.667 ± 0.018 | 0.796 ± 0.02 | 0.926 ± 0.023 | 1.056 ± 0.026 | 1.226 ± 0.03 | 1.322 ± 0.032 | 1.381 ± 0.033 | 1.258 ± 0.03 | 1.05 ± 0.026 | 0.757 ± 0.019

O [water] + CCOCCO
[2], x2 = 0
Details | viscosity [mPa·s]
303.15 K | 0.7975 ± 0.02
308.15 K | 0.7195 ± 0.019
313.15 K | 0.6532 ± 0.017
318.15 K | 0.5963 ± 0.016
323.15 K | 0.5471 ± 0.015

O [water] + COCCO
[2], x2 = 0
Details | viscosity [mPa·s]
303.15 K | 0.7975 ± 0.02
308.15 K | 0.7195 ± 0.019
313.15 K | 0.6532 ± 0.017
318.15 K | 0.5963 ± 0.016
323.15 K | 0.5471 ± 0.015

O [water] + NCCO
[2], x2 = 0
Details | viscosity [mPa·s]
303.15 K | 0.7975 ± 0.082
308.15 K | 0.7195 ± 0.074
313.15 K | 0.6532 ± 0.067
318.15 K | 0.5963 ± 0.061
323.15 K | 0.5471 ± 0.056
